Columns and labels:
[1] = target: T1, GST-RIPK2 fusion protein (human RIPK2, amino acids 1-310) (Homo sapiens, UniProt O43353); assay: RIPK2 binding competition assay (TR-FRET, Tracer 199 displacement); conditions: 10 nM Tracer 199, 1 nM GST-RIPK2, read-out: RIPK2 IC50
T1 construct: made in house; host or cells: baculovirus infected Sf9 cells
Description: The ability of selected compounds of Formula (I) to inhibit the binding of an Alexa647-labelled ATP-competitive kinase inhibitor to a GST-RIPK2 fusion protein was quantified employing the TR-FRET-based RIPK2 binding competition assay as described in the following paragraphs.
Recombinant fusion protein of N-terminal Glutathione-S-Transferase (GST) and a fragment of human RIPK2 (amino acids 1-310 of accession number 043353), expressed in baculovirus infected Sf9 cells, purified via glutathione affinity chromatography, was used as GST-RIPK2 fusion protein. Tracer 199 from Life Technologies (catalogue no. PR9115B) was used as Alexa647-labelled ATP-competitive kinase inhibitor.
For the assay, 50 nL of a 100-fold concentrated solution of each test compound in DMSO was pipetted into either a black low volume 384-well microtiter plate or a black 1536-well microtiter plate (both Greiner Bio-One, Frickenhausen, Germany), 3 μL solution of Tracer 199 (16.7 nM=>final concentration in 5 μL assay volume is 10 nM) in aqueous assay buffer (25 mM Tris/HCl pH 7.5, 10 mM magnesium chloride (MgCl2), 5 mM β-glycerophosphate, 2.5 mM dithiothreitol (DTT), 0.5 mM ethylene glycol-bis(2-aminoethylether)-N,N,N′,N′-tetraacetic acid (EGTA), 0.5 mM sodium ortho-vanadate, 0.01% (w/v) bovine serum albumin (BSA), 0.005% (w/v) Pluronic F-127 (Sigma)) were added. Then the binding competition was started by the addition of 2 μL of a solution of the GST-RIPK2 fusion protein (2.5 nM=>final conc. in the 5 μL assay volume is 1 nM) and of Anti-GST-Tb (1.25 nM=>final conc. in the 5 μL assay volume is 0.5 nM), a Lumi4®—Tb cryptate-conjugated anti-GST antibody from PerkinElmer (catalogue no 61GSTTAH), in assay buffer.
The resulting mixture was incubated 45 min at 22° C. to allow the formation of a complex between the Tracer 199, the fusion protein and Anti-GST-Tb. Subsequently, the amount of this complex was evaluated by measurement of the resonance energy transfer from the Tb-cryptate to the Tracer 199. Therefore, the fluorescence emissions at 620 nm and 665 nm after excitation at 337 nm were measured in a TR-FRET reader, e.g. a Pherastar FS (BMG Labtechnologies, Offenburg, Germany) or a Viewlux (PerkinElmer). The ratio of the emissions at 665 nm and at 620 nm was taken as the measure of the amount of the complex. The data were normalized (assay reaction without inhibitor=0% activity, all other assay components but no GST-RIPK2 fusion protein=−100% activity).
Table A1 below lists IC50 values of selected compounds of Formula (I) measured in the RIPK2 binding competition assay.

[2] = target: T2, binding of His-XIAP(BIR2)-avi fusion protein to GST-RIPK2 fusion protein (RIPK2/XIAP) (Homo sapiens, UniProt O43353); assay: RIPK2-XIAP binding competition PPI assay (TR-FRET); conditions: RIPK2/XIAP binding competition PPI assay; for Emax: Amax, read-out: PPI Amax bin; for IC50: read-out: PPI IC50 bin
T2 construct: made in house; host or cells: baculovirus infected Sf9 cells
T2 sequence (O43353 1-310 limits assumed): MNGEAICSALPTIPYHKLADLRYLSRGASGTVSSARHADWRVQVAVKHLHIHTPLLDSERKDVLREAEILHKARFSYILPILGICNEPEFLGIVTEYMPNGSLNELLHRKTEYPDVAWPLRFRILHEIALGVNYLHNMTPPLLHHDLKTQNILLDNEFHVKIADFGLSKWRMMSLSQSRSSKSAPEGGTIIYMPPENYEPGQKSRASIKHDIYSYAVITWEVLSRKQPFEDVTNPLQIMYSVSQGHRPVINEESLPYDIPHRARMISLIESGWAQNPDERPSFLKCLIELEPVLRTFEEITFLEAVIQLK
Description: The ability of selected compounds of Formula (I) to inhibit the binding of an His-XIAP(BIR2)-avi fusion protein to a GST-RIPK2 fusion protein was quantified employing the TR-FRET-based competition assay as described in the following paragraphs.
Recombinant fusion protein of N-terminal Glutathione-S-Transferase (GST) and a fragment of human RIPK2 (amino acids 1-310 of accession number 043353), expressed in baculovirus infected Sf9 cells, purified via glutathione affinity chromatography, was used as GST-RIPK2 fusion protein. Recombinant fusion protein of N-terminal 6×Histidine (His), a fragment of human XIAP (amino acids 152-231 of accession number P98170), and C-terminal avi tag, expressed in baculovirus infected Sf9 cells, purified via Nickel NTA affinity chromatography, was used as the His-XIAP(BIR2)-avi fusion protein.
For the assay, a working solution of 1 nM GST-RIPK2, 25 nM His-XIAP(BIR2)-avi, 6 nM Anti-His-XL665 […] (Revvity Catalogue No. 61HISXLB), and 0.5 nM Anti-GST-Tb (Revvity Catalogue No. 61GSTTLB) in 25 mM Tris-HCl 7.5, 0.5 mM ethylene glycol-bis(2-aminoethylether)-N,N,N′,N′-tetraacetic acid (EGTA), 10 mM magnesium chloride (MgCl2), 2.5 mM dithiothreitol (DTT), 0.01% (w/v) bovine serum albumin (BSA), 0.005% (w/v) Pluronic F-127 (Sigma), 0.5 mM sodium ortho-vanadate, 5 mM β-Glycerophosphate disodium salt hydrate (BGP) was prepared. 50 nL of a 100-fold concentrated solution of each test compound in DMSO was dispensed via acoustic dispensing into a white low volume 384-well microtiter plate (Perkin Elmer Catalogue No. 6008280). Subsequently, 5 μL of the assay working solution were added.
The resulting mixture was incubated 120 min at 23° C. Subsequently, the amount of complex formed by the GST-RIPK2, XIAP(BIR2)-avi, Anti-His-XL665, and Anti-GST-Tb was evaluated by measurement of the resonance energy transfer from the Tb-cryptate to the XL665. Therefore, the fluorescence emissions at 520 nm and 665 nm after excitation at 337 nm were measured in a TR-FRET reader, e.g. a Pherastar FS (BMG Labtechnologies, Offenburg, Germany) or an Envision (PerkinElmer). The ratio of the emissions at 665 nm and at 520 nm was taken as the measure of the amount of the complex. The data were normalized (assay reaction without inhibitor=0% activity, 50 nM of GSK583=−100% activity).
For the RIPK2/XIAP binding competition PPI assay Amax values, “A” denotes an Amax of ≥80%; “B” denotes an Amax of 80%>B≥55; “C” denotes an Amax of 55%>C>30; and “D” denotes an Amax of ≤30%.

[3] = test system: NF-κB pathway (SEAP) in THP1-Dual cells; assay: THP-1 Dual cell SEAP assay (L18-MDP stimulated); format: cell-based; conditions: Homo sapiens, THP1-Dual, read-out: NF-κB THP1 IC50 bin
Experimental: THP1-Dual™ cells (InvivoGen Cat #thpd-nfis) allow simultaneous assessment of the NF-κB pathway, by monitoring the activity of secreted embryonic alkaline phosphatase (SEAP) as well as the IRF pathway, by assessing the activity of a secreted luciferase (Lucia). Cells were cultured according to manufacturers' recommendations. For the assay, cell concentration was adjusted to 7.14×10^5 cells/mL in assay media (RPMI 1640, 2 mM L-Glutamine, 25 mM HEPES, 10% fetal bovine serum (heat-inactivated for 30 min at 56° C.), Pen-Strep (100 U/mL)) and 35 µL of cell suspension (˜25,000 cells) per well were added to a flat bottom 384-well plate (white opaque). Plate was centrifuged at 300 g for 2 min, compounds were added in serial dilution series according to the plate layout (volumes ˜500 nL-0.0152 nL) and plate was incubated at 37° C. in 5% CO2 for 30 min. Using assay media, a L18-MDP stock solution, that results in a final concentration of 10 ng/mL L18-MDP in each well when adding 15 μL to each well, was prepared. 15 μL of L18-MDP stock solution was added to each well, while 15 μL of assay media was added to the negative control wells. Plates were subsequently incubated at 37° C. in 5% CO2 overnight (20-24 h).
For the SEAP assay: without disturbing the cells at the bottom of the well, 15 μL supernatant was transferred to a clear 384-well flat bottom plate and 35 μL QUANTI-Blue Solution per well was added. Following a 2 h incubation at 37° C., the optical density (OD) was measured at 620-655 nm using a microplate reader (PheraStar FS microplate reader with protocol for OD 620-655 nm).
Values of media-only wells were subtracted and % inhibition for each compound concentration relative to the DMSO/L18-MDP-treated controls was calculated. Inhibition values+/−SD were fitted by non-linear regression using Prism software (GraphPad PRISM Software) to calculate IC50 values.

T1 sequence (O43353 1-310): as the sequence (O43353 1-310 limits assumed) above

| Structure (SMILES) | IC50 [1] [nM] | Emax [2] [%] | IC50 [2] [nM] | IC50 [3] [nM] |
| --- | --- | --- | --- | --- |
| CC(CO)COc1cc2ncc(-c3cc(F)c(N)nc3F)n2cc1S(=O)(=O)C(C)(C)C (racemic) [Example 174, 3-((3-(6-amino-2,5-difluoropyridin-3-yl)-6-(tert-butylsulfonyl)imidazo[1,2-a]pyridin-7-yl)oxy)-2-methylpropan-1-ol] | 1 to 2.5 | > 80 | 1 to 2.5 | 50 to 250 |
| CC(C)(C)C(C)(O)c1cn2c(-c3cc(F)c(N)nc3F)cnc2cc1OCCO (single isomer, unassigned) [Example 295] | 2.5 to 20 | > 80 | 2.5 to 20 | > 1000 |
| COc1cc2ncc(-c3cc(F)nc(NCCCO)c3)n2cc1C(F)(F)F [Example 1, 3-((6-Fluoro-4-(7-methoxy-6-(trifluoromethyl)imidazo[1,2-a]pyridin-3-yl)pyridin-2-yl)amino)propan-1-ol] | 2.5 to 20 | < 30 | > 20 | 50 to 250 |
| COc1cc2ncc(-c3cc(N)nc(F)c3)n2cc1C(F)(F)F [Example 2, 6-fluoro-4-(7-methoxy-6-(trifluoromethyl)imidazo[1,2-a]pyridin-3-yl)pyridin-2-amine] | 2.5 to 20 | < 30 | > 20 | 50 to 250 |
| Nc1cc(-c2cnn3ccc(C(F)(F)F)cc23)cc(F)n1 [Example 3, 6-fluoro-4-(5-(trifluoromethyl)pyrazolo[1,5-a]pyridin-3-yl)pyridin-2-amine] | > 20 | < 30 | > 20 | 250 to 1000 |
| Nc1cc(-c2cnc3ccc(C(F)(F)F)cn23)cc(F)n1 [Example 4, 6-fluoro-4-(6-(trifluoromethyl)imidazo[1,2-a]pyridin-3-yl)pyridin-2-amine] | > 20 | < 30 | > 20 | 250 to 1000 |
| OCCCNc1cc(-c2cnc3ccc(C(F)(F)F)cn23)cc(F)n1 [Example 5, 3-((6-fluoro-4-(6-(trifluoromethyl)imidazo[1,2-a]pyridin-3-yl)pyridin-2-yl)amino)propan-1-ol] | > 20 | < 30 | > 20 | 250 to 1000 |
| OCCCNc1cc(-c2cnn3ccc(C(F)(F)F)cc23)cc(F)n1 [Example 6, 3-((6-fluoro-4-(5-(trifluoromethyl)pyrazolo[1,5-a]pyridin-3-yl)pyridin-2-yl)amino)propan-1-ol] | 2.5 to 20 | < 30 | > 20 | 50 to 250 |
| COc1cc2ncc(-c3cc(N)cc4[nH]ncc34)n2cc1S(=O)(=O)C(C)(C)C [Example 7, 4-[7-Methoxy-6-(2-methylpropane-2-sulfonyl)imidazo[1,2-a]pyridin-3-yl]-1H-indazol-6-amine] | > 20 | 30 to 55 | > 20 | > 1000 |
| COc1cc2ncc(-c3ccc(NC(C)=O)nc3)n2cc1S(=O)(=O)C(C)(C)C [Example 8, N-(5-(6-(tert-butylsulfonyl)-7-methoxyimidazo[1,2-a]pyridin-3-yl)pyridin-2-yl)acetamide] | > 20 | < 30 | > 20 | > 1000 |
| COC(=O)Nc1ccc(-c2cnc3cc(OC)c(S(=O)(=O)C(C)(C)C)cn23)cn1 [Example 9, methyl (5-(6-(tert-butylsulfonyl)-7-methoxyimidazo[1,2-a]pyridin-3-yl)pyridin-2-yl)carbamate] | > 20 | < 30 | > 20 | > 1000 |
| COc1cc2nc(Cl)c(-c3ccc(N)nc3F)n2cc1S(=O)(=O)C(C)(C)C [Example 10, 5-(6-(tert-butylsulfonyl)-2-chloro-7-methoxyimidazo[1,2-a]pyridin-3-yl)-6-fluoropyridin-2-amine] | > 20 | > 80 | > 20 | – |
| CC(C)(C)C(C)(O)c1cn2c(-c3cc(F)c(N)nc3F)cnc2cc1OCCO (stereo not shown) [Example 193, 2-(3-(6-amino-2,5-difluoropyridin-3-yl)-7-(2-hydroxyethoxy)imidazo[1,2-a]pyridin-6-yl)-3,3-dimethylbutan-2-ol] | 2.5 to 20 | > 80 | – | – |
| COc1cc2ncc(-c3cc(F)c(OC)c(NCc4cnn(C)c4)c3)n2cc1S(=O)(=O)C(C)(C)C [Example 301, 5-(6-(tert-butylsulfonyl)-7-methoxyimidazo[1,2-a]pyridin-3-yl)-3-fluoro-2-methoxy-N-((1-methyl-1H-pyrazol-4-yl)methyl)aniline] | – | 55 to 80 | < 1 | 50 to 250 |

Source: patent US20260137706A1, “METHODS OF TREATING INFLAMMATORY DISEASES” (INTERLINE THERAPEUTICS, INC., priority 2023, published 2026)
